Several values for one entry are separate records, joined by “and”; a condition that tells them apart may be missing. Equal values may be shown once.
Test: Validation of stability of H3N2b in urine, plasma, CSF, stock solution and standard curve matrix
Assay type: physicochemical, human
Experimental: Validation of stability-The long-term storage, freeze/thaw stabilities, and stabilities on the bench-top and in the autosampler were determined at the LQC and HQC concentration levels (n=3). Long-term storage stabilities of […]-80° C. in urine, plasma, CSF were tested. Bench-top stabilities of […] were evaluated in urine at room temperature, in plasma at room temperature, in CSF at room temperature and 4° C. Freeze/thaw stability in urine, plasma, CSF was tested by freezing the samples at -80° C. overnight, followed by thawing to room temperature the next day. This process was repeated three times. […] Stock solution stability was established by quantification of samples from dilution of two stock solutions that were stored at -20° C. and at room temperature on the bench, respectively, to the final solution (10000 ng/mL in water). The stabilities of […] in the matrix of standard curve for urine, plasma, CSF were test after storage at room temperature and at -80° C. […] standard curve was established each time.

SMILES: CC(=O)N[C@H]1[C@H](O[C@@H]2[C@@H](O[C@@H]3[C@H](O)[C@H](O[C@H]4[C@H](O)[C@@H](NC(C)=O)C(O)O[C@@H]4CO)O[C@H](CO)[C@H]3O)O[C@H](CO)[C@@H](O)[C@@H]2O)O[C@H](CO)[C@@H](O[C@@H]2O[C@H](CO)[C@H](O)[C@H](O)[C@H]2O)[C@@H]1O (stereo partly drawn) [H3N2b, O-β-D-galactopyranosyl-(1→4)-O-(2-acetamido-2-deoxy-β-D-glucopyranosyl)-(1→2)-O-α-D-mannopyranosyl-(1→3)-O-β-D-mannopyranosyl-(1→4)-2-acetamido-2-deoxy-α,β-D-glucopyranose]
- Stable after freeze/thaw cycles (CSF): 3 freeze/thaw cycles
- Stable for (CSF at 4° C.): 1 days
- Stable for (CSF at −80° C.): 125 days
- Stable for (CSF, room temperature): 0.083 days
- Stable for (matrix of standard curve for urine, plasma, CSF, room temperature): 1 days
- Stable after freeze/thaw cycles (plasma): 3 freeze/thaw cycles
- Stable for (plasma at −80° C.): 158 days
- Stable for (plasma, room temperature): 1 days
- Stable for (processed CSF samples at 4° C.): 3 days
- Stable for (processed plasma samples at 4° C.): 3 days
- Stable for (processed urine samples at 4° C.): 3 days
- Stable for (standard curve samples for CSF at −80° C.): 125 days
- Stable for (standard curve samples for plasma at −80° C.): 158 days
- Stable for (standard curve samples for urine at −80° C.): 194 days
- Stable for (stock solution at −20° C.): 232 days and 231 days
- Stable for (stock solution, room temperature): 1 days
- Stable after freeze/thaw cycles (urine): 3 freeze/thaw cycles
- Stable for (urine at −80° C.): 194 days
- Stable for (urine, room temperature): 1 days

Reference: patent publication US20240329050A1, “METHODS OF DETECTING PENTASACCHARIDES AND TREATMENT AND MONITORING OF LYSOSOMAL STORAGE DISEASE” (Washington University, priority 2021, published 2024)
